Source: patent US20250064941A1, “SIGLEC LIGANDS, CONJUGATES, AND METHODS OF USE THEREOF” (Osprey Biopharmaceuticals, Inc., priority 2023, published 2025)

What was measured:
[1] = molecular target: T1, human Siglec-2/CD22 protein (Homo sapiens, UniProt P20273); test: SPR binding affinity to human CD22; settings: steady-state analysis
T1 construct: purchased Acro Biosystems SI2-H82E3
T1 sequence (P20273 20-847): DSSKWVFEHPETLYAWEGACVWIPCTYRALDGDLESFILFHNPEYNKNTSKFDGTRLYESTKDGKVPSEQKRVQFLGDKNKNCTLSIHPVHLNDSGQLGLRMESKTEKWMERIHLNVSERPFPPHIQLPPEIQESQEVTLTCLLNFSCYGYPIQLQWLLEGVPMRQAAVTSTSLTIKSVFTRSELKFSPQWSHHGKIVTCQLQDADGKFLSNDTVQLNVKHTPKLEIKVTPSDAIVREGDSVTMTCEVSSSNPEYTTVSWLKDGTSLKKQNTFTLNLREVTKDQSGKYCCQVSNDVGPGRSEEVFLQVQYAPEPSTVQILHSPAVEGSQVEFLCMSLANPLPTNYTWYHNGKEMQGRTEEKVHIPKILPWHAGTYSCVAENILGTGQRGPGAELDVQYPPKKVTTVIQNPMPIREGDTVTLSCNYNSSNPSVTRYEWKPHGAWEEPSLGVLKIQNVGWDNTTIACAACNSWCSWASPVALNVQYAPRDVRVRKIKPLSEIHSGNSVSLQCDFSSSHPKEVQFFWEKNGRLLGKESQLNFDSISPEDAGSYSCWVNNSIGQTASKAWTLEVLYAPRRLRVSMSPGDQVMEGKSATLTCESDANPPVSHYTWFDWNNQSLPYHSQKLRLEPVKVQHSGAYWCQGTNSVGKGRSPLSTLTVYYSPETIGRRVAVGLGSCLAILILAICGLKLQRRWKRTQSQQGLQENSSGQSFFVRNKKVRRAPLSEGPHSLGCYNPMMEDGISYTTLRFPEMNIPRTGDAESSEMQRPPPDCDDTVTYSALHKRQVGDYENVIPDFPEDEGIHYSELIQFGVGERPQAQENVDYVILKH
In short: (§1)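 SialoExo pretreatment, 4 h 37° C.; biotinylated CD22 on SA chip, Biacore 8K. Buffer 10 mM HEPES, 150 mM NaCl, 0.05% Tween-20, pH 7.5, 1% DMSO. Dissociation 120 s; solvent-corrected; steady-state KD.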

cynomolgus Siglec-2/CD22 = cynomolgus Siglec-2/CD22 (Macaca fascicularis, UniProt A0A2K5WCZ6); test: biochemical; format: binding; settings: SPR, steady-state analysis; read-out: Affinity cyno CD22
In short: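 Compound binding measured by steady-state SPR analysis, 120 s dissociation, in HEPES-NaCl-Tween buffer pH 7.5 containing 1% DMSO, DMSO solvent-corrected. Surface: cyno CD22, sialic acids first stripped by SialoExo for 4 h at 37° C., then amine-coupled onto CM5.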

[2] = molecular target: T2, mouse Siglec-2-Fc-Avi (CD22) (Mus musculus, UniProt P35329); test: SPR binding affinity to mouse CD22; settings: steady-state analysis
T2 construct: made in house
T2 sequence (P35329 22-708 limits assumed): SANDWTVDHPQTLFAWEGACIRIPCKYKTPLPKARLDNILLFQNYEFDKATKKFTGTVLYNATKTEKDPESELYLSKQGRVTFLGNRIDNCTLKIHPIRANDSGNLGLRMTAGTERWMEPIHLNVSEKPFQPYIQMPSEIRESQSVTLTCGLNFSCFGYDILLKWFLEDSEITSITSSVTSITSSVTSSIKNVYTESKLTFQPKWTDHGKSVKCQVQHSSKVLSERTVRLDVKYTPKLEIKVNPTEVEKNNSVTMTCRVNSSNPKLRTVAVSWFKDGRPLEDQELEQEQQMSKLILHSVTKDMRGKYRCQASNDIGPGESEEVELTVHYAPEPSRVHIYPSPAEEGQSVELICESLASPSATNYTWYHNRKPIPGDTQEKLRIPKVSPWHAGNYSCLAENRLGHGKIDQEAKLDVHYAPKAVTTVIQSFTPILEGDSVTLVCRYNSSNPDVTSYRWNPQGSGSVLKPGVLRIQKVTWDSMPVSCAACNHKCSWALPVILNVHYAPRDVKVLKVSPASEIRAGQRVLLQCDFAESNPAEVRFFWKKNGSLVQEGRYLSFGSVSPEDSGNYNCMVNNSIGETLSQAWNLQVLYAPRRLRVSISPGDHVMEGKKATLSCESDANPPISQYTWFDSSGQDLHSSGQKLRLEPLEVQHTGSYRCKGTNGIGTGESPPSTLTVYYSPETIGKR
In short: as §1

Sequence of cynomolgus Siglec-2/CD22 (A0A2K5WCZ6 entry or part of it): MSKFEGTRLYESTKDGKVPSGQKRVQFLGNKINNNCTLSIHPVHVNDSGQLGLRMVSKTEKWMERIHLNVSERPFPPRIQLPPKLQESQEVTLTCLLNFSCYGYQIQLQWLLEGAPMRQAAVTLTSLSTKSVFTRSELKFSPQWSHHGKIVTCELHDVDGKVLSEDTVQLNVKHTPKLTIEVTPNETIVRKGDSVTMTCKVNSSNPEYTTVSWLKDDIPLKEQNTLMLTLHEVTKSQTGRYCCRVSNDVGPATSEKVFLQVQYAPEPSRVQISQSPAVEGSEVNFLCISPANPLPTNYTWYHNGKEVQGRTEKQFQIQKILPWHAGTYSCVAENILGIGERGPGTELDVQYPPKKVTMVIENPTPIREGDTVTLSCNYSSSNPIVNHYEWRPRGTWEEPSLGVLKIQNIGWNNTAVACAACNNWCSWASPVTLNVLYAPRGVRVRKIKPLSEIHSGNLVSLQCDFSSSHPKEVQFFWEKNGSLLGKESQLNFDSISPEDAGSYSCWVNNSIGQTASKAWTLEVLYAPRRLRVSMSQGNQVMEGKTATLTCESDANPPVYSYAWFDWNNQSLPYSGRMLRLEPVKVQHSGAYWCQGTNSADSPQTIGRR

SMILES | Kd [1] | Kd (cynomolgus Siglec-2/CD22) | Kd [2]
O=C(Cc1ccc(-c2ccc(O)cc2)cc1)NC[C@@H](O)[C@@H](O)[C@@H]1O[C@](C(=O)O)(n2cc(-c3ccccc3O)nn2)C[C@H](O)[C@H]1NC(=O)CO [Compound 54, (2R,4S,5R,6R)-6-((1R,2R)-1,2-dihydroxy-3-(2-(4′-hydroxy-[1,1′-biphenyl]-4-yl)acetamido)propyl)-4-hydroxy-5-(2-hydroxyacetamido)-2-(4-(2-hydroxyphenyl)-1H-1,2,3-triazol-1-yl)tetrahydro-2H-pyran-2-carboxylic acid] | < 1000 nM | 1000 to 10000 nM | > 10 µM
C#CCCOc1ccc(CO[C@]2(C(=O)O)C[C@H](O)[C@@H](NC(C)=O)[C@H]([C@H](O)[C@H](O)CNC(=O)c3cccc(Oc4ccccc4)c3)O2)cc1 [Compound 22, (2R,4S,5R,6R)-5-acetamido-2-((4-(but-3-yn-1-yloxy)benzyl)oxy)-6-((1R,2R)-1,2-dihydroxy-3-(3-phenoxybenzamido)propyl)-4-hydroxytetrahydro-2H-pyran-2-carboxylic acid] | < 1000 nM | 1000 to 10000 nM | > 10 µM
C#CCOCCCCCCO[C@]1(C(=O)O)C[C@H](O)[C@@H](NC(=O)NC2CC2)[C@H]([C@H](O)[C@H](O)CNC(=O)Cc2ccc(Cl)cc2)O1 [Compound 89, (2R,4S,5R,6R)-6-((1R,2R)-3-(2-(4-chlorophenyl)acetamido)-1,2-dihydroxypropyl)-5-(3-cyclopropylureido)-4-hydroxy-2-((6-(prop-2-yn-1-yloxy)hexyl)oxy)tetrahydro-2H-pyran-2-carboxylic acid] | 1000 to 10000 nM | 1000 to 10000 nM | 1 to 10 µM
C#CCOCCOCCO[C@]1(C(=O)O)C[C@H](O)[C@@H](NC(=O)CO)[C@H]([C@H](O)[C@H](O)CNC(=O)CCCCCCCCCCCCCCC)O1 [Compound 13, (2R,4S,5R,6R)-6-((1R,2R)-1,2-dihydroxy-3-palmitamidopropyl)-4-hydroxy-5-(2-hydroxyacetamido)-2-(2-(2-(prop-2-yn-1-yloxy)ethoxy)ethoxy)tetrahydro-2H-pyran-2-carboxylic acid] | > 10000 nM | > 10000 nM | > 10 µM
C#CCOCCOCCO[C@@]1(C(=O)O)O[C@@H]([C@H](O)[C@H](O)CNC(=O)Cc2ccc(-c3ccccc3)cc2)[C@H](NC(=O)CO)[C@@H](NC(=O)c2cccc(OC)c2)[C@@H]1O [Compound 36, (2R,3S,4R,5R,6R)-6-((1R,2R)-3-(2-([1,1′-biphenyl]-4-yl)acetamido)-1,2-dihydroxypropyl)-3-hydroxy-5-(2-hydroxyacetamido)-4-(3-methoxybenzamido)-2-(2-(2-(prop-2-yn-1-yloxy)ethoxy)ethoxy)tetrahydro-2H-pyran-2-carboxylic acid] | < 1000 nM | 1000 to 10000 nM | 1 to 10 µM

More lines, now with the values ahead:

Kd [1] | Kd (cynomolgus Siglec-2/CD22) | Kd [2] | SMILES
1000 to 10000 nM | 1000 to 10000 nM | 1 to 10 µM | C#CCOCCOCCNc1c(NCCCCCCO[C@]2(C(=O)O)C[C@H](O)[C@@H](NC(=O)CO)[C@H]([C@H](O)[C@H](O)CNC(=O)c3cccc(C(F)F)c3)O2)c(=O)c1=O [Compound 233, (2R,4S,5R,6R)-6-((1R,2R)-3-(3-(difluoromethyl)benzamido)-1,2-dihydroxypropyl)-2-((6-((3,4-dioxo-2-((2-(2-(prop-2-yn-1-yloxy)ethoxy)ethyl)amino)cyclobut-1-en-1-yl)amino)hexyl)oxy)-4-hydroxy-5-(2-hydroxyacetamido)tetrahydro-2H-pyran-2-carboxylic acid]
> 10000 nM | > 10000 nM | > 10 µM | C#CCOCCOCCO[C@]1(C(=O)O)C[C@H](O)[C@@H](NC(=O)CO)[C@H]([C@H](O)[C@H](O)CNC(=O)c2cccc(Cl)c2)O1 [Compound 201, (2R,4S,5R,6R)-6-((1R,2R)-3-(3-chlorobenzamido)-1,2-dihydroxypropyl)-4-hydroxy-5-(2-hydroxyacetamido)-2-(2-(2-(prop-2-yn-1-yloxy)ethoxy)ethoxy)tetrahydro-2H-pyran-2-carboxylic acid]
1000 to 10000 nM | 1000 to 10000 nM | 1 to 10 µM | CC(=O)NCCOCCOCCOCCOCCNc1c(NCCOCCOCCO[C@]2(C(=O)O)C[C@H](O)[C@@H](NC(=O)CO)[C@H]([C@H](O)[C@H](O)CNC(=O)Cc3ccc(Cl)cc3)O2)c(=O)c1=O [Cpd. 247, (2R,4S,5R,6R)-6-((1R,2R)-3-(2-(4-chlorophenyl)acetamido)-1,2-dihydroxypropyl)-2-(2-(2-(2-((3,4-dioxo-2-((2-oxo-6,9,12,15-tetraoxa-3-azaheptadecan-17-yl)amino)cyclobut-1-en-1-yl)amino)ethoxy)ethoxy)ethoxy)-4-hydroxy-5-(2-hydroxyacetamido) tetrahydro-2H-pyran-2-carboxylic acid]
< 1000 nM | < 1000 nM | 1 to 10 µM | C#CCOCCOCCO[C@]1(C(=O)O)C[C@H](O)[C@@H](NC(=O)CO)[C@H]([C@H](O)[C@H](O)CNC(=O)Cc2ccc3[nH]ccc3c2)O1 [Compound 196, (2R,4S,5R,6R)-6-((1R,2R)-3-(2-(1H-indol-5-yl)acetamido)-1,2-dihydroxypropyl)-4-hydroxy-5-(2-hydroxyacetamido)-2-(2-(2-(prop-2-yn-1-yloxy)ethoxy)ethoxy)tetrahydro-2H-pyran-2-carboxylic acid]
1000 to 10000 nM | < 1000 nM | 1 to 10 µM | C#CCOc1ccc(CO[C@]2(C(=O)O)C[C@H](O)[C@@H](NC(=O)CO)[C@H]([C@H](O)[C@H](O)CNC(=O)Cc3ccc(O)cc3)O2)cc1 [Compound 146, (2R,4S,5R,6R)-6-((1R,2R)-1,2-dihydroxy-3-(2-(4-hydroxyphenyl)acetamido)propyl)-4-hydroxy-5-(2-hydroxyacetamido)-2-((4-(prop-2-yn-1-yloxy)benzyl)oxy)tetrahydro-2H-pyran-2-carboxylic acid]
1000 to 10000 nM | 1000 to 10000 nM | 1 to 10 µM | CC(=O)NCCOCCOCCOCCOCCC(=O)NCCOCCOCCO[C@]1(C(=O)O)C[C@H](O)[C@@H](NC(=O)CO)[C@H]([C@H](O)[C@H](O)CNC(=O)Cc2ccc(-c3ccccc3)cc2)O1 [Compound 236, (2R,4S,5R,6R)-6-((1R,2R)-3-(2-([1,1′-biphenyl]-4-yl)acetamido)-1,2-dihydroxypropyl)-2-((2,18-dioxo-6,9,12,15,22,25-hexaoxa-3,19-diazaheptacosan-27-yl)oxy)-4-hydroxy-5-(2-hydroxyacetamido) tetrahydro-2H-pyran-2-carboxylic acid]
< 1000 nM | < 1000 nM | 1 to 10 µM | O=C(Cc1ccc(Cl)cc1)NC[C@@H](O)[C@@H](O)[C@@H]1O[C@@](SCc2cccc(C(=O)O)c2)(C(=O)O)C[C@H](O)[C@H]1NC(=O)CO [Compound 116, (2S,4S,5R,6R)-2-((3-carboxybenzyl)thio)-6-((1R,2R)-3-(2-(4-chlorophenyl)acetamido)-1,2-dihydroxypropyl)-4-hydroxy-5-(2-hydroxyacetamido)tetrahydro-2H-pyran-2-carboxylic acid]
